{"source": "patent US10905770B2", "about": "“Topical delivery of therapeutic agents using cell-penetrating peptides for the treatment of age-related macular degeneration and other eye diseases” (priority 2017, dated 2021)", "key": {"[1]": {"system": "neutral lipids in and on the Bruch's membrane", "assay": "Oil red O staining of neutral lipids in Bruch's membrane, macaque study", "format": "in vivo, Macaca fascicularis", "conditions": "eyes injected with L-4F vs eyes injected with placebo; 6 monthly intravitreal injections (total 625 μg); after 6 months", "description": "(§1) The macaque study was conducted according to accepted guidelines. […] One eye per animal received 6 monthly injections of the same escalating dosages of L-4F or scrambled L-4F (total of 625 μg) in a 50 μL volume. The second eye per animal was not injected and was just observed.\nClinical laboratory tests including serology, hemograms and liver enzymes were conducted, and ophthalmic examinations were also performed, including fundus photographs, optical coherence tomography (OCT), intraocular pressure testing and blood sampling. After 7 months, all animals were sacrificed and eyes were immediately prepared for histology. Histochemistry was performed with oil red O for neutral lipids and filipin for esterified cholesterol. […]\nFor staining with oil red O (ORO), specimens were treated with a 0.3% oil red O (Sigma-Aldrich Biochemie GmbH, Hamburg, Germany) solution (in 99% isopropanol) for 30 min at room temperature (RT), followed by immersion in a 60% isopropanol solution for 12 min. […] Image analysis was performed by grading the intensity of ORO staining (red color) of the Bruch's membrane (BrM) with scores ranging from 0 to 4, according to a qualitative evaluation assessed in four different regions in two separate slices from each eye (a total of 8 different regions from each eye). […]"}, "[2]": {"system": "esterified cholesterol in the Bruch's membrane", "assay": "Filipin staining of esterified cholesterol in Bruch's membrane, macaque study", "format": "in vivo, Macaca fascicularis", "conditions": "eyes injected with L-4F vs placebo-injected eyes; 6 monthly intravitreal injections", "description": "as §1\n(§2) Clinical laboratory tests including serology, hemograms and liver enzymes were conducted, and ophthalmic examinations were also performed, including fundus photographs, optical coherence tomography (OCT), intraocular pressure testing and blood sampling. After 7 months, all animals were sacrificed and eyes were immediately prepared for histology. […]\nFor staining with filipin, specimens were washed once with deionized water for 5 min and then treated with 70% ethanol for 45 min. […] The specimens were then washed sequentially with PBS and deionized water, mounted with a mounting solution (Mowiol®, Carl Roth GmbH, Karlsruhe, Germany), covered with a glass cover slip, and examined using an inverted fluorescence microscope (DMI 6000 from Leica Microsystems, Wetzlar, Germany). Filipin fluorescence was observed using a UV filter set (λex/λem=350 nm/455 nm). […] Semiquantitative analysis of fluorescence intensity of filipin at three separate regions of the BrM was done on three different slides from the same eye (a total of 9 different regions from each eye)."}, "[3]": {"system": "complement factor D (CFD)", "assay": "Immunohistochemistry of complement factor D, macaque study", "format": "in vivo, Macaca fascicularis", "conditions": "eyes injected with L-4F vs eyes injected with the scrambled peptide; fluorescence intensity", "description": "as §1, §2\n(§3) Assays for immunohistochemistry of the membrane attack complex (MAC, C5b-9) and complement factor D (CFD) were performed identically except for employment of monoclonal antibodies specific for each complement component. […] Fluorescence microscopy was conducted using an inverted fluorescence microscope (DMI 6000 from Leica Microsystems, Wetzlar, Germany) and a filter set for λex/λem=470 nm/525 nm. For the semiquantitative analysis of fluorescence intensity of C5b-9, 3-5 different regions in one slide were analyzed for 3 different slides from each eye (a total of 9-15 different regions from each eye). For the semiquantitative analysis of fluorescence intensity of complement factor D, 3 distinct regions for each eye were evaluated."}, "[4]": {"system": "membrane attack complex (MAC, C5b-9)", "assay": "Immunohistochemistry of membrane attack complex, macaque study", "format": "in vivo, Macaca fascicularis", "conditions": "eyes injected with L-4F vs eyes injected with the scrambled peptide; fluorescence intensity", "description": "as §1, §2, §3"}, "[5]": {"system": "geriatric macaques with naturally occurring age-related maculopathy", "assay": "Macaque study: fellow non-injected eye, tolerability and blood hsCRP", "format": "in vivo", "description": "as §1\nClinical laboratory tests including serology, hemograms and liver enzymes were conducted, and ophthalmic examinations were also performed, including fundus photographs, optical coherence tomography (OCT), intraocular pressure testing and blood sampling. After 7 months, all animals were sacrificed and eyes were immediately prepared for histology. Histochemistry was performed with oil red O for neutral lipids and filipin for esterified cholesterol. Immunohistochemistry was performed against complement factor D (CFD) and the membrane attack complex (MAC, C5b-9), both being markers of activation of the alternative complement pathway.\nCirculating hsCRP, which is mainly produced in the liver, is a non-specific marker for systemic inflammation."}, "[6]": {"system": "geriatric macaques with naturally occurring age-related maculopathy", "assay": "Bruch's membrane thickness by electron microscopy, macaque study", "format": "in vivo, Macaca fascicularis", "description": "as §1\nLipid deposition in the Bruch's membrane contributes to thickening of the BrM. Bruch's membrane thickness was measured at the temporal outer macula of enucleated eyes examined by electron microscopy post-mortem."}}, "data": [{"substance": "Ac-DWFKAFYDKVAEKFKEAF-NH2 [L-4F]", "values": [{"measurement": "reduction of lipid deposits from the BrM (staining with oil red O)", "setting": "[1]", "value": "about 56%"}, {"measurement": "reduction of esterified cholesterol in the BrM (filipin fluorescence)", "setting": "[2]", "value": "about 68%"}, {"measurement": "decreased level of complement factor D", "setting": "[3]", "value": "about 41%"}, {"measurement": "decreased level of MAC (C5b-9) in the BrM and the choriocapillaris", "setting": "[4]", "value": "about 58%"}, {"measurement": "blood level of high-sensitivity C-reactive protein (hsCRP)", "setting": "[5]; after 6 monthly intravitreal injections vs day prior to first injection", "value": "did not increase"}, {"measurement": "tolerability (adverse events, side effects)", "setting": "[5]; macaques intravitreally injected with L-4F", "value": "well tolerated"}, {"measurement": "reduction of BrM thickness", "setting": "[6]; eyes injected with L-4F vs eyes injected with placebo", "value": "about 24%"}, {"measurement": "BrM thickness", "setting": "[6]; eyes injected with L-4F, temporal outer macula, electron microscopy post-mortem, ±SE", "value": 1.31, "unit": "μm"}]}]}
